Source: US6110949A, “N-(substituted glycyl)-4-cyanothiazolidines, pharmaceutical compositions containing them and their use in inhibiting dipeptidyl peptidase-IV” (Novartis AG, priority 1999, dated 2000)
Where a name gives a salt, the structure may show the parent alone.

How the values were obtained:
Type in all cases: biochemical
[1] = molecular target: T1, DPP-IV (Caco-2 cell extract) (Homo sapiens, UniProt P27487); assay: Caco-2 DPP-IV Assay (inhibition of DPP-IV activity from human colonic carcinoma cell extracts); settings: substrate H-Alanine-Proline-pNA, pH 7.4, room temperature, 10 minutes
T1 construct: adding 20 μg solubilized Caco-2 protein; endogenous in cells; host or cells: Caco-2 (ATCC HTB 37), differentiated to induce DPP-IV expression; nonidet-P40 extract
T1 sequence (P27487 whole entry): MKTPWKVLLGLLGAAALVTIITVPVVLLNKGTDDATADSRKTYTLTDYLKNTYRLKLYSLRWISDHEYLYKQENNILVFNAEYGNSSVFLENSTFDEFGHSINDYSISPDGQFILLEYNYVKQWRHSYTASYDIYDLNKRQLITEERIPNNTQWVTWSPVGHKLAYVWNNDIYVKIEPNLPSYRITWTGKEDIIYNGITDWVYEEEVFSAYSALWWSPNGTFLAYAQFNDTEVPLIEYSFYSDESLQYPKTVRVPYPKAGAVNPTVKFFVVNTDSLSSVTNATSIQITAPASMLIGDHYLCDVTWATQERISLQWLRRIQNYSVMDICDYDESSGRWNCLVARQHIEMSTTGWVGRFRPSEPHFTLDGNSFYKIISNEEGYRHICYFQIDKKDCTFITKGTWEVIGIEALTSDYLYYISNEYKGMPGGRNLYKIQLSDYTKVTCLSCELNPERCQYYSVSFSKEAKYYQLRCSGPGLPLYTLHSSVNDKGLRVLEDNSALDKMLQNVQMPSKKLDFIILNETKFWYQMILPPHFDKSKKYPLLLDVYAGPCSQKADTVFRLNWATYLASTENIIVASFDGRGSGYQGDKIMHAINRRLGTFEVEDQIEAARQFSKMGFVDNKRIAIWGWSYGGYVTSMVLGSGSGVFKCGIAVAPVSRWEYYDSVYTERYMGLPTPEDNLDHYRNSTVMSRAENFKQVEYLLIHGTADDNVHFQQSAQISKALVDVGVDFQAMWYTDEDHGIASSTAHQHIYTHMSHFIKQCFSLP
Source text: As indicated above, all of the compounds of formula I, and their corresponding pharmaceutically acceptable acid addition salts, are useful in inhibiting DPP-IV. […] The human colonic carcinoma cell line Caco-2 was obtained from the American Type Culture Collection (ATCC HTB 37). Differentiation of the cells to induce DPP-IV expression was accomplished as described by Reisher, et al. in an article entitled "Increased expression of . . . intestinal cell line Caco-2" in Proc. Natl. Acad. Sci., Vol. 90, pgs. 5757-5761 (1993). Cell extract is prepared from cells solubilized in 10 mM Tris-HCl, 0.15 M NaCl, 0.04 t.i.u. aprotinin, 0.5% nonidet-P40, pH 8.0, which is centrifuged at 35,000 g for 30 min. at 4° C. to remove cell debris. The assay is conducted by adding 20 μg solubilized Caco-2 protein, diluted to a final volume of 125 μl in assay buffer (25 mM Tris-HCl pH 7.4, 140 mM NaCl, 10 mM KCl, 1% bovine serum albumin) to microtiter plate wells. The reaction is initiated by adding 25 μl of 1 mM substrate (H-Alanine-Proline-pNA; pNA is p-nitroaniline). The reaction is run at room temperature for 10 minutes after which time a 19 μl volume of 25% glacial acetic acid is added to stop the reaction. Test compounds are typically added as 30 μl additions and the assay buffer volume is reduced to 95 μl. A standard curve of free p-nitroaniline is generated using 0-500 μM solutions of free pNA in assay buffer. The curve generated is linear and is used for interpolation of substrate consumption (catalytic activity in nmoles substrate cleaved /min). The endpoint is determined by measuring absorbance at 405 nm in a Molecular Devices UV Max microtiter plate reader. The potency of the test compounds as DPP-IV inhibitors, expressed as IC50, is calculated from 8-point, dose-response curves using a 4-parameter logistic function.

human plasma DPP-IV = molecular target: T2, human plasma DPP-IV (Homo sapiens, UniProt P27487); assay: Inhibition of DPP-IV activity in human plasma; settings: substrate H-Glycine-Proline-AMC, pH 7.8, room temperature, 20 min
T2 construct: from tissue; host or cells: human plasma
T2 sequence (P27487 39-766 limits assumed): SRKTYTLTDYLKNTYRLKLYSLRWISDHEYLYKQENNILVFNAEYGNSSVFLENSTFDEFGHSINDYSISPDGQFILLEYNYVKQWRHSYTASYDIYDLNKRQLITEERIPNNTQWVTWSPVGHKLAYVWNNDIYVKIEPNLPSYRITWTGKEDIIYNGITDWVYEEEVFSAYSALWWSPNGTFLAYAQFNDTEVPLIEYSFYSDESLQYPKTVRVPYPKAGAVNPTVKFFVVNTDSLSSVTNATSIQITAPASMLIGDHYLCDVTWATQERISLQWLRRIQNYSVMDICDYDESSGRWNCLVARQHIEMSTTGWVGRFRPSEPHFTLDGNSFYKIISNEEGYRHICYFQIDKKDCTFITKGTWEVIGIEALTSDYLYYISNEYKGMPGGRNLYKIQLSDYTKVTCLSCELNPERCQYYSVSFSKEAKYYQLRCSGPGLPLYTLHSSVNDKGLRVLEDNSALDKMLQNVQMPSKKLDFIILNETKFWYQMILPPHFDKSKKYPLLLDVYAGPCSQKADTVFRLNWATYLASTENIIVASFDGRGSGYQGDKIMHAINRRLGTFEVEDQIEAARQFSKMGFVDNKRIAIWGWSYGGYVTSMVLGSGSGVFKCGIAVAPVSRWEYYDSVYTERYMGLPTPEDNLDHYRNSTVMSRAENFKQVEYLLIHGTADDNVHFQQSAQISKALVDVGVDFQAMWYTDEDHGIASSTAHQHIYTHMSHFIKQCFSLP
Experimental: (§1) 192-197 (1992). Briefly, five μl of plasma are added to 96-well flat-bottom mictotiter plates (Falcon), followed by the addition of 5 μl of 80 mM MgCI2 in incubation buffer (25 mM HEPES, 140 mM NaCl, 1% RIA-grade BSA, pH 7.8). After a 5 min. incubation at room temperature, the reaction is initiated by the addition of 10 μl of incubation buffer containing 0.1 mM substrate (H-Glycine-Proline-AMC; AMC is 7-amino-4-methylcoumarin). The plates are covered with aluminum foil (or kept in the dark) and incubated at room temperature for 20 min. After the 20 min. reaction, fluorescence is measured using a CytoFluor 2350 fluorimeter (Excitation 380 nm Emission 460 nm; sensitivity setting 4). Test compounds are typically added as 2 μl additions and the assay buffer volume is reduced to 13 μl. A fluorescence-concentration curve of free AMC is generated using 0-50 μM solutions of AMC in assay buffer. The curve generated is linear and is used for interpolation of substrate consumption (catalytic activity in nmoles substrate cleaved/min). As with the previous assay, the potency of the test compounds as DPP-IV inhibitors, expressed as IC50, is calculated from 8-point, dose-response curves using a 4 parameter logistic function.

rat plasma DPP-IV = molecular target: T3, rat plasma DPP-IV (Rattus norvegicus, UniProt P14740); assay: Inhibition of DPP-IV activity in rat plasma; settings: substrate H-Glycine-Proline-AMC, pH 7.8, room temperature, 20 min
T3 construct: from tissue; host or cells: rat plasma
T3 sequence (P14740 37-767 limits assumed): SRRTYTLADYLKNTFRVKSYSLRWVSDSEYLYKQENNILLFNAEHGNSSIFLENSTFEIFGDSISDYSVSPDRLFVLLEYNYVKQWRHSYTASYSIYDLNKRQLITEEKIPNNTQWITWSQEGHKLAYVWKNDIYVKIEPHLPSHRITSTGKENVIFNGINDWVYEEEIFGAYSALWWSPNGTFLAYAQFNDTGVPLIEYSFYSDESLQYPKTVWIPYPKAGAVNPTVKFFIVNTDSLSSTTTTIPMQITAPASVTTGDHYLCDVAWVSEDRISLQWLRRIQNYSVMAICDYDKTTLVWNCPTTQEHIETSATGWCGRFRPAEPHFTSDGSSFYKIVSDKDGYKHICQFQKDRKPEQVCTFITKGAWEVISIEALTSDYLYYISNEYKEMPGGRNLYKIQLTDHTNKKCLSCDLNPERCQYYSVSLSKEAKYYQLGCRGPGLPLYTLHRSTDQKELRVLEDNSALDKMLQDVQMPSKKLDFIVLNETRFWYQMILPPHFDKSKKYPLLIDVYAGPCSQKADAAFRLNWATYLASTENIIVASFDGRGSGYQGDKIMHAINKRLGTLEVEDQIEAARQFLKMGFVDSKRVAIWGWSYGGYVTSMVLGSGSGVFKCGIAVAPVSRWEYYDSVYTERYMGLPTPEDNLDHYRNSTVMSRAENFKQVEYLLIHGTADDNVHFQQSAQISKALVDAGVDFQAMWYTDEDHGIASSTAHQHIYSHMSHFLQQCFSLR
Experimental: as §1

| SMILES | IC50 [1] [nM] | IC50 (human plasma DPP-IV) [nM] | IC50 (rat plasma DPP-IV) [nM] |
| --- | --- | --- | --- |
| N#C[C@@H]1CSCN1C(=O)CNC1CCCCC1 [Ex. 1, 3-[(cyclohexyl)amino]acetyl-4-cyano-(R)-thiazolidine monohydrochloride] | 7 | 10 | 10 |
| CC(C)OCCCNCC(=O)N1CSC[C@H]1C#N [Ex. 2, 3-[(3-isopropoxypropyl)amino]acetyl-4-cyano-(R)-thiazolidine monohydrochloride] | 7 | 5 | 1 |
| CC(C)NCC(=O)N1CSC[C@H]1C#N [Ex. 3, 3-[(isopropyl)amino]acetyl-4-cyano-(R)-thiazolidine monohydrochloride] | 6 | 3 | 3 |
